According to patent US12540139B2, “Imidazopiperazine inhibitors of transcription activating proteins” (Board of Regents, The University of Texas System, priority 2020, dated 2026):
pIC50: −log10 of the molar value.

What was measured:
[1] = In vivo pharmacokinetics after a single dose, rat; conditions: male, plasma, Sprague-Dawley rat
Procedure: (§1) IV (intravenous) doses were formulated in 20% DMSO+60% PEG400+20% water. PO (per os) doses were formulated in 0.5% methylcellulose in water.
Rat: Male rats (SD strain, purchased from Shanghai JH Laboratory Animal Co. LTD) weighing 200-300 g were used for studies. Animals were fasted overnight and fed 4 h postdose. Water was available ad libitum for all animals. Test article was dosed via dorsal foot vein (IV doses) or oral gavage (PO doses). Blood samples were collected via tail vein from all animals at predose and at 0.083, 0.25, 0.5, 1, 2, 4, 8, and 24 h postdose into tubes containing the anticoagulant K2EDTA. Plasma was separated from the blood by centrifugation at 4° C. and stored at −70° C. until analysis. Test article concentrations in plasma were quantified using a liquid chromatography with tandem mass spectrometry (LC-MS/MS) method.

[2] = biological target: T1, GST-CBP (1081-1197) bromodomain (Homo sapiens, UniProt Q92793); assay: CBP AlphaScreen assay; type: binding; conditions: biotin-H4 (1-21) Ac-K5/8/12/16 peptide
T1 construct: The GST tagged bromodomains of CBP (1081-1197) and BRD4 (49-170) were obtained from BPS Bioscience; purchased BPS Bioscience
T1 sequence (Q92793 1081-1197): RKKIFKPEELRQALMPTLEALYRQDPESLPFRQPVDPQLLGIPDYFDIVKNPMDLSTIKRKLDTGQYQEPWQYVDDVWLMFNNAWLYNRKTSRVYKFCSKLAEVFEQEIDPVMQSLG
Procedure: (§2) Specific binding of the CBP or BRD4 bromodomain to the acetylated peptide derived from the H4 histone substrate (tetra acetylated H4 (1-21) Ac-K5/8/12/16) was measured in absence or presence of inhibitors. The GST tagged bromodomains of CBP (1081-1197) and BRD4 (49-170) were obtained from BPS Bioscience and binding to the biotinylated H4 (1-21) Ac-K5/8/12/16 (AnaSpec. 64989) was assessed via AlphaScreen technology (Perkin Elmer).
5 nM GST-CBP (1081-1197) and 20 nM biotin-H4 (1-21) Ac-K5/8/12/16 (AnaSpec. 64989) were incubated with varying concentrations of CBP inhibitors in 15 μL of buffer containing 50 mM HEPES 7.5, […], 1 mM TCEP, and 0.003% Tween-20. After 30 minutes incubation at room temperature, 15 μL of detection buffer (BPS Bio. 33006) containing 7 μg/mL of Glutathione AlphaLisa acceptor beads (Perkin Elmer AL109) and 14 μg/mL of Streptavidin donor beads (Perkin Elmer 676002) was then added to the previous mixture. The reaction was incubated for an additional 2 hours at room temperature, and the AlphaScreen signal was quantified using the Envision Multilabel plate reader. As negative control, GST-CBP (1081-1197) was incubated with the non-acetylated biotin-H4 (1-21) peptide (AnaSpec. 62555) and in presence of 0.25% of final DMSO concentration.
(§3) The binding of 2.5 nM of BRD4 (49-170) to 10 nM biotin-H4 (1-21) Ac-K5/8/12/16 (AnaSpec. 64989) was assessed following the same procedure described for the CBP assay. The standard dose response curves were fitted by Genedata Screener software using the variable-slope model: Signal=Signalnegative control+(SignalDMSO control−Signalnegative control)/(1+(IC50/Dose)^Hill slope).
(§4) Only Signal and Dose in the equation were treated as known values.

[3] = Metabolic stability in rat liver microsomes; type: in vitro ADME; conditions: pH 7.4; Sprague Dawley rat liver microsomes 0.5 mg/mL, NADPH, 45 minutes, 37° C.; read-out: Half-life in liver microsomes (t1/2), Rat
Procedure: (§5) Microsomal stability. Microsomal stability assays were conducted on a Beckmann Biomek FXp laboratory automation system. The liver microsomal incubation mixture consisted of liver microsomes (0.5 mg microsomal protein/mL), the Compound (1 μM), MgCl2 (3 mM), and EDTA (1 mM) in potassium phosphate buffer (100 mM, pH 7.4). Midazolam and Ketanserin were used as the assay control substrates. The reaction was initiated with the addition of an NADPH regeneration solution (1.3 mM NADPH) and maintained at 37° C. with shaking. At five time points ranging from 0 to 45 min, aliquots (50 μL) were removed and quenched with acetonitrile (100 μL) containing an internal standard (imipramine). After vortex and centrifugation, samples were analyzed by LC-MS/MS. Calculation of the in vitro half-lives and clearance followed literature guidelines.

[4] = Metabolic stability in mouse liver microsomes; type: in vitro ADME; conditions: pH 7.4; CD-1 mouse liver microsomes 0.5 mg/mL, NADPH, 45 minutes, 37° C.; read-out: Half-life in liver microsomes (t1/2), Mouse
Procedure: as §5

[5] = In vivo pharmacokinetics after a single dose, monkey; conditions: male, plasma, Cynomolgus monkey
Procedure: as §1
(§6) Monkey: Male Cynomolgus monkeys (purchased from Hainan Jingang Biotech. Co., Ltd) weighing 3-5 kg were used for studies. Animals were fasted overnight and fed 4 h postdose. Test article was administered to monkeys via the cephalic vein (IV doses) or nasal gavage (PO doses). Blood samples were collected via the saphenous vein or cephalic vein from all animals at predose and 0.083, 0.25, 0.5, 1, 2, 4, 8, and 24 h postdose into tubes containing the anticoagulant K2EDTA. Plasma was separated from the blood by centrifugation at 4° C. and stored at −70° C. until analysis. Test article concentrations in plasma were quantified using a liquid chromatography with tandem mass spectrometry (LC-MS/MS) method.

DOHH2 cells = assay: DOHH2 proliferation assay (CellTiter-Glo, day 7); type: cell-based; conditions: Homo sapiens, DOHH-2, 168 h; viability by CellTiter-Glo on day 7
Procedure: On day 1, 1000 DOHH2 cells were seeded to a 384-well TC plate (PerkinElmer #6007680) in 40 μL RPMI 1640 media, followed by the addition of CBP inhibitors except for column 13 where 3.3 μM staurosporine was added as negative control. DMSO was 0.1% in all the wells. The cells were lysed in and counted for viability by 40 μL CellTiter-Glo (Promega #G9243) on day 7. The luminescent signal was quantified by Envision Multilabel plate reader and the standard dose response curves were fitted by Genedata Screener software using the variable-slope model: Signal=Signalnegative control+(SignalDMSO control−Signalnegative control)/(1+(IC50/Dose)^Hill slope).
as §4

[6] = In vivo pharmacokinetics after a single dose, dog; conditions: male, plasma, Beagle dog
Procedure: as §1
as §6, with “Dog:” for “Monkey:”, “Beagle dogs” for “Cynomolgus monkeys”, “Beijing Marshall Biotechnology” for “Hainan Jingang Biotech.”, “7-10” for “3-5”, “dogs” for “monkeys”, “oral” for “nasal”

[7] = biological target: T2, BRD4 (49-170) bromodomain (Homo sapiens, UniProt O60885); assay: BRD4 AlphaScreen assay; type: binding; conditions: biotin-H4 (1-21) Ac-K5/8/12/16 peptide
T2 construct: The GST tagged bromodomains of CBP (1081-1197) and BRD4 (49-170) were obtained from BPS Bioscience; purchased BPS Bioscience
Procedure: as §2, §3, §4

[8] = Metabolic stability in dog liver microsomes; type: in vitro ADME; conditions: pH 7.4, read-out: Liver microsomal clearance (t1/2), Dog
Procedure: as §5

[9] = Metabolic stability in human liver microsomes; type: in vitro ADME; conditions: pH 7.4; human liver microsomes 0.5 mg/mL, NADPH, 45 minutes, 37° C.; read-out: Half-life in liver microsomes (t1/2), Human
Procedure: as §5

[10] = Metabolic stability in monkey liver microsomes; type: in vitro ADME; conditions: pH 7.4, read-out: Liver microsomal clearance (t1/2), Monkey
Procedure: as §5

[11] = In vivo pharmacokinetics after a single dose, mouse; conditions: female CD-1 mice, single dose 0.2 or 0.3 mg/kg IV; for Vd: read-out: Vss
Procedure: as §1
Mouse: Female mice (CD1 strain, purchased from Shanghai JH Laboratory Animal Co. LTD) weighing 20-30 g were used for studies. Food and water were available to all animals ad libitum. The test article was dosed via tail vein (IV doses) or oral gavage (PO doses), respectively. Blood samples were collected from all animals at predose and at 0.083, 0.25, 0.5, 1, 2, 4, 8, and 24 h postdose into tubes containing the anticoagulant K2EDTA (3 animals per time point with 3 time points collected per animal). Plasma was separated from the blood by centrifugation at 4° C. and stored at −70° C. until analysis. Test article concentrations in plasma were quantified using a liquid chromatography with tandem mass spectrometry (LC-MS/MS) method.

[12] = mouse, plasma, read-out: Clearance (converted)

For `CNC(=O)N1CCn2c(C3CCOCC3)nc(-c3cccc4nc(-c5cnc(C)s5)c(C(F)F)cc34)c2C1` [Compound 1, 1-(3-(difluoromethyl)-2-(2-methylthiazol-5-yl)quinolin-5-yl)-N-methyl-3-(tetrahydro-2H-pyran-4-yl)-5,6-dihydroimidazo[1,5-a]pyrazine-7(8H)-carboxamide], the clearance ([1]; 1 mg/kg IV) was 8.92 mL/min/kg, the half-life ([1]; 1 mg/kg IV) was 2.99 h and the Vd ([1]; 1 mg/kg IV, read-out: Vss) was 0.908 L/kg. For the same molecule, the AUC(0-t) ([1]; 3 mg/kg PO) was 2.63 µM·h, the Cmax ([1]; 3 mg/kg PO) was 1350 nM and the bioavailability ([1]; 3 mg/kg PO) was 25.2%. The pIC50 [2] was 8.52, the half-life at 1 μM [3] was 3.22 h and the half-life at 1 μM [4] was 69.8 h. It also gave a clearance ([5]; 1 mg/kg IV) of 12.3 mL/min/kg, a half-life ([5]; 1 mg/kg IV) of 1.65 h and a Vd ([5]; 1 mg/kg IV, read-out: Vss) of 1.06 L/kg. For the same molecule, the AUC(0-t) ([5]; 3 mg/kg PO) was 2.49 µM·h, the Cmax ([5]; 3 mg/kg PO) was 773 nM and the bioavailability ([5]; 3 mg/kg PO) was 28.2%. It also gave a pIC50 (DOHH2 cells) of 7.54, a clearance ([6]; 1 mg/kg IV) of 6.72 mL/min/kg and a half-life ([6]; 1 mg/kg IV) of 3.42 h. It also gave a Vd ([6]; 1 mg/kg IV, read-out: Vss) of 1.57 L/kg, an AUC(0-t) ([6]; 3 mg/kg PO) of 10.8 µM·h and a Cmax ([6]; 3 mg/kg PO) of 1870 nM. It also gave a bioavailability ([6]; 3 mg/kg PO) of 78.9%, a pIC50 [7] of 5.32 and a half-life at 1 μM [8] of 1.05 h. The half-life at 1 μM [9] was 3.97 h, the half-life at 1 μM [10] was 0.383 h and the clearance [11] was “dramatic decrease”. For the same molecule, the t1/2 [11] was “increase”, the half-life ([11]; mouse, plasma) was 4.47 h and the clearance [11, 12] was 3.28 mL/min/kg. It also gave a Vd ([11]; mouse, plasma) of 0.342 L/kg.
`CC(=O)N1CCn2c(C3CCOCC3)nc(-c3cccc4nc(-c5cnc(C)s5)c(C(F)F)cc34)c2C1` [Compound 2] gave a pIC50 [2] of 8.70, a pIC50 (DOHH2 cells) of 6.67 and a pIC50 [7] of 5.71.
Work on `CC(=O)N1CCn2c(C3CCOCC3)nc(-c3cccc4nc(-c5ccc(C)nc5)c(C(F)F)cc34)c2C1` [Compound 3, 1-(1-(3-(Difluoromethyl)-2-(6-methylpyridin-3-yl)quinolin-5-yl)-3-(tetrahydro-2H-pyran-4-yl)-5,6-dihydroimidazo[1,5-a]pyrazin-7(8H)-yl)ethan-1-one] yielded a pIC50 [2] of 7.77, a pIC50 (DOHH2 cells) of 6.70 and a pIC50 [7] of 5.13.
For `CNC(=O)N1CCn2c(C3CCOCC3)nc(-c3cccc4cc(-c5cnc(C)s5)ncc34)c2C1` [Compound 4, reference compound], the half-life at 1 μM [3] was 8.45 h, the half-life at 1 μM [4] was 86.7 h and the pIC50 (DOHH2 cells) was 6.87. The half-life at 1 μM [9] was 4.35 h, the half-life ([11]; mouse, plasma) was 0.318 h and the clearance [11, 12] was 33.5 mL/min/kg. For the same molecule, the Vd ([11]; mouse, plasma) was 0.822 L/kg.
